Values after ≈ are worked out from the molar mass of the structure shown. Bridge positions count the residues as written; N and C are the ends. Peptide text beside a SMILES is read from it.
Legend:
Bacillus subtilis = assay: MIC, inhibition of cell growth; format: cell-based; conditions: lab strain; 1 hour 37° C. in 10 mM NaCl/50 mM MOPS, pH 7.2, then YPD 24 hours 37° C.
[1] = system: primary human foreskin epithelial cell culture; conditions: various concentrations, 0, 36 and 72 hours (FIG. 3)
Experimental: To determine range of non-toxic concentrations of DB2121, various concentration s of DB2121, 50 μM ketoconazole or DMSO as a control were separately added to primary human foreskin epithelial cell culture. At 0, 36 and 72 hours after addition, the epithelial cells were titriated off the culture plate and the viable cell number was determined. The experiment was performed in triplicate. At 72 hours, the foreskin epithelial cells exposed to the various compounds were imaged at 20× magnification using phase contrast microscopy. For cell counting, the epithelial cells were stained with trypan exclusion stain to monitor cell viability.

mice = assay: Tolerability in mice, intra-peritoneal injection; format: in vivo
Experimental: (§1) In addition, mice were able to withstand a concentration of 15 mg/kg of DB2121 when injected via an intra-peritoneal route. When injected into adult rats, a concentration of up to and including 1.5 mg/kg caused no harm when injected intra-venously.

adult rats = assay: Tolerability in adult rats, intra-venous injection; format: in vivo
Experimental: as §1

[2] = system: Candida albicans (SC5314); conditions: lab strain; 1 hour 37° C. in 10 mM NaCl/50 mM MOPS, pH 7.2, then YPD broth 24 hours 30° C.
[3] = system: Candida albicans (isolate #3); conditions: clinical isolate #3; 1 hour 37° C. in 10 mM NaCl/50 mM MOPS, pH 7.2, then YPD 24 hours 30° C.
[4] = system: Candida albicans (isolate #4); conditions: clinical isolate #4; 1 hour 37° C. in 10 mM NaCl/50 mM MOPS, pH 7.2, then YPD 24 hours 30° C.
[5] = system: Candida albicans (isolate #5); conditions: clinical isolate #5; 1 hour 37° C. in 10 mM NaCl/50 mM MOPS, pH 7.2, then YPD 24 hours 30° C.
[6] = system: Candida albicans (isolate #11); conditions: clinical isolate #11; 1 hour 37° C. in 10 mM NaCl/50 mM MOPS, pH 7.2, then YPD 24 hours 30° C.
[7] = system: Candida albicans (isolate #28); conditions: clinical isolate #28; 1 hour 37° C. in 10 mM NaCl/50 mM MOPS, pH 7.2, then YPD 24 hours 30° C.
[8] = system: Candida albicans (isolate #77); conditions: clinical isolate #77; 1 hour 37° C. in 10 mM NaCl/50 mM MOPS, pH 7.2, then YPD 24 hours 30° C.
[9] = system: Candida albicans (isolate #98); conditions: clinical isolate #98; 1 hour 37° C. in 10 mM NaCl/50 mM MOPS, pH 7.2, then YPD 24 hours 30° C.
[10] = system: Candida albicans (isolate #99); conditions: clinical isolate #99; 1 hour 37° C. in 10 mM NaCl/50 mM MOPS, pH 7.2, then YPD 24 hours 30° C.
[11] = system: Candida albicans (isolate #AST97); conditions: clinical isolate AST97 (blood culture); 1 hour 37° C. in 10 mM NaCl/50 mM MOPS, pH 7.2, then YPD 24 hours 30° C.
[12] = system: Candida dubliniensis (isolate #10); conditions: clinical isolate #10; 1 hour 37° C. in 10 mM NaCl/50 mM MOPS, pH 7.2, then YPD 24 hours 30° C.
[13] = system: Candida tropicalis (isolate #93); conditions: clinical isolate #93; 1 hour 37° C. in 10 mM NaCl/50 mM MOPS, pH 7.2, then YPD 24 hours 30° C.
S. aureus (ATCC 29213) = conditions: lab strain ATCC 29213; 1 hour 37° C. in 10 mM NaCl/50 mM MOPS, pH 7.2, then YPD 24 hours 37° C.
[14] = system: S. haemolyticus (ATCC 29970); conditions: lab strain ATCC 29970; 1 hour 37° C. in 10 mM NaCl/50 mM MOPS, pH 7.2, then YPD 24 hours 37° C.
S. aurens (ATCC 43300) = conditions: lab strain ATCC 43300; 1 hour 37° C. in 10 mM NaCl/50 mM MOPS, pH 7.2, then YPD 24 hours 37° C.
S. aurens (ATCC 25923) = conditions: lab strain ATCC 25923; 1 hour 37° C. in 10 mM NaCl/50 mM MOPS, pH 7.2, then YPD 24 hours 37° C.
MRSAS. aureus (STRAIN 1) = conditions: clinical MRSA strain 1; 1 hour 37° C. in 10 mM NaCl/50 mM MOPS, pH 7.2, then YPD 24 hours 37° C.
MRSAS. aureus (STRAIN 2) = conditions: clinical MRSA strain 2; 1 hour 37° C. in 10 mM NaCl/50 mM MOPS, pH 7.2, then YPD 24 hours 37° C.
Candida albicans = conditions: concentration of cyclic Histatin analogue, alone or in combination; 1 hour 37° C. in 20 mM Tris-Cl, pH 7.2, 20 mM NaCl, then YPD 24 hours
[15] = system: Primary human neonatal foreskin epithelial cells; conditions: 50 μM working (antimicrobial) concentration
Experimental: At 18 and 36 hours following addition of compound, the foreskin epithelial cells were imaged using phase contract microscopy at 20× magnification. […] The experiments was repeated three times.

phosphorylated ERK 1, 2 = conditions: 50 μM, primary human foreskin epithelial cells
Experimental: Toxicological studies of DB2121 in human cells were also undertaken. Primary human neonatal foreskin epithelial cells were used to examine DB2121 toxicity, using a method as described in Min et al. 2004. […] At 18 and 36 hours following addition of compound, the foreskin epithelial cells were imaged using phase contract microscopy at 20× magnification. (E) Immediately following the image analysis, proteins were extracted, separated on SDS-PAGE gels, Western blotted, and probed for Phosphorylated and non-phosphorylated ERK 1, 2 to monitor the proliferation of the foreskin keratinocytes. The experiments was repeated three times.
The primary cells were lysed and monitored for a marker of proliferation namely phosphorylated ERK 1, 2.

[16] = 1 uM, 37° C., in vitro
Experimental: The cyclic analogue was incubated in human saliva at a concentration of 1 uM and at a temperature of 37° C. in vitro. At various time points from 0 to 72 hours, 1.0 ul aliquots were taken and injected directly into a Micromass Quattro Micro mass spectrometer. Data was collected for a total of 3 minutes. The data was then processed using Mass Lynx 4.0 Analysis software.

## N=C(N)NCCC[C@H](NC(=O)[C@H](Cc1c[nH]cn1)NC(=O)[C@@H]1CSSC[C@H](NC(=O)[C@H](Cc2c[nH]cn2)NC(=O)[C@H](Cc2c[nH]cn2)NC(=O)[C@@H](N)CCCNC(=N)N)C(=O)N[C@@H](Cc2ccc(O)cc2)C(=O)N[C@@H](CCCCN)C(=O)N[C@@H](CCCNC(=N)N)C(=O)N[C@@H](CCCCN)C(=O)N[C@@H](Cc2ccccc2)C(=O)N[C@@H](Cc2c[nH]cn2)C(=O)N[C@@H](CCC(=O)O)C(=O)N[C@@H](CCCCN)C(=O)N[C@@H](Cc2c[nH]cn2)C(=O)N[C@@H](Cc2c[nH]cn2)C(=O)N1)C(=O)NCC(=O)N[C@@H](Cc1ccc(O)cc1)C(=O)O [DB2121] (H-RHHCYKRKFHEKHHCHRGY-OH; disulfide 4-15)
Bacillus subtilis
  MIC: 23.9 µM (≈ 61.1 µg/mL)
[1]
  toxicity in primary cultured cells (viable cell number): minimal toxicity
mice
  concentration withstood: 15 mg/kg
Adult rats
  concentration that caused no harm: ≤ 1.5 mg/kg
[2]
  MIC: 4.5 µM (≈ 11.5 µg/mL)
[3]
  MIC: 8.0 µM (≈ 20.5 µg/mL)
[4]
  MIC: 4.5 µM (≈ 11.5 µg/mL)
[5]
  MIC: 4.5 µM (≈ 11.5 µg/mL)
[6]
  MIC: 6.5 µM (≈ 16.6 µg/mL)
[7]
  MIC: 4.5 µM (≈ 11.5 µg/mL)
[8]
  MIC: 4.5 µM (≈ 11.5 µg/mL)
[9]
  MIC: 4.5 µM (≈ 11.5 µg/mL)
[10]
  MIC: 4.5 µM (≈ 11.5 µg/mL)
[11]
  MIC: 7.8 µM (≈ 20 µg/mL)
[12]
  MIC: 4.5 µM (≈ 11.5 µg/mL)
[13]
  MIC: 4.5 µM (≈ 11.5 µg/mL)
S. aureus (ATCC 29213)
  MIC: 12.5 µM (≈ 32 µg/mL)
[14]
  MIC: 4.5 µM (≈ 11.5 µg/mL)
S. aurens (ATCC 43300)
  MIC: 5.5 µM (≈ 14.1 µg/mL)
S. aurens (ATCC 25923)
  MIC: 4.5 µM (≈ 11.5 µg/mL)
MRSAS. aureus (STRAIN 1)
  MIC: 11.5 µM (≈ 29.4 µg/mL)
MRSAS. aureus (STRAIN 2)
  MIC: 11.5 µM (≈ 29.4 µg/mL)
Candida albicans
  MIC (DB2121): 11 µM
[15]
  toxicity to human primary cells: non-toxic
Phosphorylated ERK 1, 2
  ERK 1, 2 activation compared to control: not suppressed
[16]
  stable in human saliva: at least 72 hours

Source: patent publication US20100173833A1, “METHODS AND COMPOSITION FOR USE OF CYCLIC ANALOGUES OF HISTATIN” (priority 2007, published 2010)
